This is an account of results in patent US8999293B2, “Animal model of anxiety and depression” (University of Mississippi, priority 2005, dated 2015).

One data set has as its system domestic fowl chicks. The settings on record: cited from earlier work; for detection of anxiolytic activity on separation-induced distress vocalizations: Feltenstein et al. 2004; for detection in the chick separation stress paradigm: Warnick et al. 2006, panic disorder vs generalized anxiety disorder drugs.
Data set [1] concerns isolated cockerels (Gallus gallus; W36). In words: Chick anxiety-depression model, drug probe studies, 120 min isolation (Example 3). The settings on record: for ED50: Gallus gallus; for isolation-induced DVoc rate during the anxiety-like phase (first five min time block) / isolation-induced DVoc rate during the depression-like phase (30-120 min) / sleep onset latency (SOL) to index sedation: IM fifteen minutes prior to testing; for isolation-induced DVoc rate during the anxiety-like phase (first five min time block) / isolation-induced DVoc rate during the depression-like phase (30-120 min): vs vehicle/isolated; for isolation-induced DVoc rate during the anxiety-like phase (first five min time block): attenuation = anxiolytic effect; for isolation-induced DVoc rate during the depression-like phase (30-120 min): increase = antidepressant effect; for sleep onset latency (SOL) to index sedation: vs vehicle/isolated chicks. How it is done:
Subjects and Housing Procedures. Cockerels (Gallus gallus; W36; Cal-Maine Foods, Inc.; Mendenhall, Miss.) were received one-day posthatch and housed in 34×57×40 cm stainless steel cages with 12-13 chicks per cage. Food (Purina Start and Grow, St. Louis, Mo.) and water were available ad libitum through one quart gravity-fed feeders (Murray MacMurray; Model 4BGFJ) and waterers (Murray MacMurray; Model 4YQW0). Room temperature was maintained at 29±1° C. and overhead illumination was maintained on a 12 hr light-dark cycle. Daily maintenance, which was conducted during the first three hr of the light cycle, involved refilling the waterer, refilling the feeder, and replacement of tray liners.
Apparatus. The testing apparatus consisted of a six-unit test apparatus containing Plexiglas viewing chambers (25×25×22 cm) placed in sound-attenuating enclosures. Each unit was illuminated and heated by a 25-W light bulb. Ventilation was provided by an eight centimeter diameter rotary fan (Commonwealth Model FP-108AX 51). Miniature video cameras (SuperCircuit Model PC60XP) mounted in the sound-attenuating enclosures at floor level and routed through a Multiplexor (SuperCircuit Model PC47MC) provided televised display of the chicks for behavioral observation. Distress vocalizations (DVocs) were recorded by microphones (Lafayette Instruments Model 3-675-001) mounted in the ceilings of the Plexiglas chambers and connected to digital sound-activating relays (Lafayette Instruments Model 63040A; settings: 75% sensitivity and 0.10 s delay) that triggered electromechanical counters (Lafayette Instruments Model 58004).
Drug Probes. All experiments were conducted between five- and seven days posthatch. The groups in each experiment formed a 1×5 factorial design with a hanging control condition (n=9-12). The two vehicle control groups constituted the social separation stress manipulation. This manipulation involved placing a chick in the Plexiglas test chamber either in isolation or with two social companions for a 120 min test observation period. All drug probes were tested in the isolation condition.
Vehicle or a drug was administered IM fifteen minutes prior to testing. Dependent measures that were collected during the test session were DVocs to index separation stress and sleep onset latency (SOL) to index sedation. DVocs were defined as the vocalizations that are picked up by the electromechanical counters. SOL was defined as the time in which a chick adopts a sleep-like posture with either its chest in full contact with the floor and its eyes closed or its legs in a wide posture, its head drooping, and its eyes closed. Following each six-chick test session, the animals were returned to their home cage. After all animals were tested, they were euthanized via CO^2 asphyxiation.
Statistical Analyses. In order to discretely analyze the drug effects in the anxiety-like state and the depression-like state, the raw DVoc data were converted to a rate per min score. The anxiety-like state DVoc rate consisted of the mean DVocs per min over the first five min of the test session. The depression-like state DVoc rate consisted of the mean DVocs per min from 30 min to 120 min. Following this conversion, the DVoc rates from the anxiety-like phase and depression-like phase were analyzed with a one-way ANOVA with Fisher's LSD post hoc analysis. Plasma IL-6 concentration data were analyzed using one-way ANOVA with Fisher's LSD post hoc analysis and independent sample t-tests.

In data set [2] the test system is isolated cockerels (Gallus gallus, strain W-36). Type of data set: in vivo. The settings on record: isolated chicks vs vehicle-isolated, chlordiazepoxide 8 mg/kg. The source says: Subjects. Cockerels (Gallus gallus, strain W-36; Cal-Maine Foods, Mendenhall, Miss., USA) were obtained 1 day posthatch and housed in stainless steel cages (34×57×40 cm) at a population density of 12 chicks per cage. Food (Purina Start and Grow, St. Louis, Mo., USA) and water were available ad libitum through a 1-quart gravity-fed feeders and waterers.
Apparatus. […] The units were illuminated using 25-W light bulbs and ventilated by an 8-cmdiameter rotary fan. Miniature video cameras mounted at floor level in the corner of the enclosures allowed for animal observation. Microphones that mounted at the ceiling of the Plexiglas chamber were connected to digital sound-activating relays, which activated electromechanical counters. A white noise generator provided room masking noise.
Procedure. Tests were conducted at either Day 4, 5, or 6 posthatch. Groups formed a single factorial design with a hanging control that included two vehicle-control groups in which chicks were tested in either an isolated or social condition, and two drug groups under the isolation condition. The vehicle was 0.9% physiological saline and the drug probes were chlordiazepoxide (8 mg/kg) and imipramine (15 mg/kg). Sample sizes were n=12 per cell. […]
Statistics. Data were analyzed using one- and two-way repeated measures analysis of variance (ANOVA) and one-way simple effects ANOVA. […]

The subject of data set [3] is Black Australorp chicks (stress-vulnerable). In words: Chick anxiety-depression model, 90 min isolation, Black Australorp strain (Example 5). The settings on record: data not shown.
Where [4] appears, read: read-out: ED50 AD Effect (40-60 min time block).
[5] abbreviates: read-out: ED50 AD Effect (60-80 min time block).
Setting [6] is: read-out: ED50 AD Effect (80-100 min time block).
[7] abbreviates: read-out: ED50 AD Effect (100-120 min time block).

Where two headings read alike, the source gives them in different places.

For `CN(C)CCCN1c2ccccc2CCc2ccccc21` [Imipramine, imipramine], in the data set with domestic fowl chicks, the “detection of anxiolytic activity on separation-induced distress vocalizations” value (shortened to “detection of anxiolytic activity”) is reported as “successful detection”. For the same molecule, in the data set with domestic fowl chicks, the “detection in the chick separation stress paradigm” value is “selectively detected”. Besides, the ED50 in data set [1] (setting [4]) amounted to 10 mg/kg; in data set [1] (setting [5]), 8.5 mg/kg; in data set [1] (setting [6]) it was 9.1 mg/kg; in data set [1] (setting [7]), 7.6 mg/kg. In addition, in data set [1], the “isolation-induced DVoc rate during the anxiety-like phase (first five min time block)” value is “significant attenuation of the separation-induced DVoc rate at the 10 mg/kg and 15 mg/kg doses”. Moreover, the “isolation-induced DVoc rate during the depression-like phase (30-120 min)” value in data set [1] is “significant exacerbation of the DVoc rate in the 1 mg/kg, 3 mg/kg and 15 mg/kg doses (p^s<0.005) and a marginally significant exacerbation in the 10 mg/kg dose condition”. In addition, the “distress vocalizations (DVocs) at the first five minute time block” value in data set [2] (IP 15 minute before tests, imipramine 15 mg/kg) is “attenuated DVocs”. For the same molecule, the “DVoc rates at the 20 minute block and beyond” value in data set [2] (imipramine 15 mg/kg IP) is “enhanced DVoc rates”.
With `Cc1nnc2n1-c1ccc(Cl)cc1C(c1ccccc1)=NC2` [alprazolam], in the data set on domestic fowl chicks, the “detection in the chick separation stress paradigm” value is “selectively detected”.
`O=C1CC2(CCCC2)CC(=O)N1CCCCN1CCN(c2ncccn2)CC1` [buspirone]: the “detection in the chick separation stress paradigm” value with domestic fowl chicks is reported as “insensitive”.
On to `O=C(CCCN1CCC(O)(c2ccc(Cl)cc2)CC1)c1ccc(F)cc1` [haloperidol], for which the “detection of anxiolytic activity” value with domestic fowl chicks is reported as “insensitive”.
As to `CCCC(C)(COC(N)=O)COC(N)=O` [meprobamate], in the data set with domestic fowl chicks, the “detection of anxiolytic activity” value is “successful detection”.
Take `CC(N)Cc1ccccc1` (centres unmarked) [amphetamine]: the “detection of anxiolytic activity” value with domestic fowl chicks was “insensitive”.
As to `CN(C)CCCN1c2ccccc2Sc2ccc(Cl)cc21` [chlorpromazine], the “detection of anxiolytic activity” value in the data set with domestic fowl chicks is given as “insensitive”.
On to `CNCCCC12CCC(c3ccccc31)c1ccccc12` [Maprotiline, maprotiline], for which the ED50 was found to be 17.2 mg/kg in data set [1] (read-out: ED50 AD Effect (20-40 min time block)); 14 mg/kg in data set [1] (setting [4]); 14.9 mg/kg in data set [1] (setting [5]); 13.6 mg/kg in data set [1] (setting [6]); 14.6 mg/kg in data set [1] (setting [7]). For the same molecule, the “isolation-induced DVoc rate during the anxiety-like phase (first five min time block)” value in data set [1] is on record as “significant attenuation of the separation-induced DVoc rate at the 20 mg/kg dose”. Besides, the “isolation-induced DVoc rate during the depression-like phase (30-120 min)” value in data set [1] is “the three lowest doses (2.5 mg/kg, 5 mg/kg, and 10 mg/kg) exacerbated DVocs”.
As to `CNCCC(Oc1ccc(C(F)(F)F)cc1)c1ccccc1` (centres unmarked) [Fluoxetine, fluoxetine], the ED50 was found to be 16.5 mg/kg in data set [1] (setting [4]), 13.3 mg/kg in data set [1] (setting [5]), 14 mg/kg in data set [1] (setting [6]) and 14 mg/kg in data set [1] (setting [7]). The “isolation-induced DVoc rate during the anxiety-like phase (first five min time block)” value in data set [1] is given as “none of the doses of fluoxetine attenuated DVocs”. In addition, the “isolation-induced DVoc rate during the depression-like phase (30-120 min)” value in data set [1] was “significant exacerbation of the DVoc rate in the 1 mg/kg, 10 mg/kg and 20 mg/kg doses”.
Regarding `CNC1(c2ccccc2Cl)CCCCC1=O` (centres unmarked) [Ketamine, ketamine], the “antidepressant activity, follow-up study with ketamine at lower doses” value in data set [3] (Black Australorps) was “failed to see antidepressant activity in either strain”. Also, the ataxia result in data set [3] (highest dose tested, strain not specified) is on record as “transient (5-10 min) ataxia”.
In the case of `Clc1cccc(Cl)c1N=C1NCCN1` [clonidine], in the data set on domestic fowl chicks, the “detection of anxiolytic activity” value was “successful detection” and the “detection in the chick separation stress paradigm” value is on record as “selectively detected”. Moreover, in data set [1], the “sleep onset latency (SOL) to index sedation” value is “significant SOL reduction in the 0.15 mg/kg and 0.20 mg/kg doses (p^s<0.05) and a marginally significant reduction in the 0.25 mg/kg dose”; the “isolation-induced DVoc rate during the anxiety-like phase (first five min time block)” value was “significant attenuation of the separation-induced DVoc rate at all doses”; the “isolation-induced DVoc rate during the depression-like phase (30-120 min)” value is “did not reveal a significant effect”.
As for `NNCCc1ccccc1` [phenelzine], the “detection in the chick separation stress paradigm” value with domestic fowl chicks is on record as “selectively detected”.
As to `O=c1n(CCCN2CCN(c3cccc(Cl)c3)CC2)nc2ccccn12` [trazodone], the “detection in the chick separation stress paradigm” value in the data set on domestic fowl chicks is reported as “insensitive”.
As for `CCCC(C)C1(CC)C(=O)NC(=O)NC1=O` (centres unmarked) [pentobarbital], the “detection of anxiolytic activity” value in the data set with domestic fowl chicks is on record as “successful detection”.
For the molecule `CNC1=Nc2ccc(Cl)cc2C(c2ccccc2)=[N+]([O-])C1` [chlordiazepoxide], the “sleep onset latency (SOL) to index sedation” value in data set [1] was “significant SOL reduction in the 10 mg/kg dose”.
As for `CN1[C@@H]2C[C@@H](OC(=O)[C@H](CO)c3ccccc3)C[C@H]1[C@@H]1O[C@@H]12` [scopolamine], the “detection of anxiolytic activity” value in the data set on domestic fowl chicks is “insensitive”.

By ED50 is commonly meant the midpoint of the dose-response relation.
